Where two headings read alike, the source gives them in different places.
Key:
[1] = tested on: K562 human myeloid cell line; experiment: In vitro toxicity in human cells, propidium iodide flow cytometry, minimum toxic concentration
Protocol: The final concentration of DMSO was less than 5%, and a DMSO control was included. The mixtures were incubated at doubling dilutions (approximately 1000 μM-10 μM range) of inhibitor for 15 hours at 37° C. At this time propidium iodide was added (1 μg/mL) and the mixture incubated at 30 min. at 4° C. The cells were washed once with medium, centrifuged, and resuspended in 2% bovine serum albumin/phosphate-buffered saline. The cell suspension was then run through a FAC Saliber flow cytometer and approximately 5000 cells were counted. The proportion of dead (stained) cells was determined, and the percent of live cells was expressed as % controls.

[2] = molecular target: T1, bacterial NAD synthetase enzyme (Bacillus subtilis, UniProt P08164); experiment: biochemical; assay type: biochemical; details: for Km: 0.2 mL Assay (microtiter plate), substrate
T1 sequence (P08164 2-272 limits assumed): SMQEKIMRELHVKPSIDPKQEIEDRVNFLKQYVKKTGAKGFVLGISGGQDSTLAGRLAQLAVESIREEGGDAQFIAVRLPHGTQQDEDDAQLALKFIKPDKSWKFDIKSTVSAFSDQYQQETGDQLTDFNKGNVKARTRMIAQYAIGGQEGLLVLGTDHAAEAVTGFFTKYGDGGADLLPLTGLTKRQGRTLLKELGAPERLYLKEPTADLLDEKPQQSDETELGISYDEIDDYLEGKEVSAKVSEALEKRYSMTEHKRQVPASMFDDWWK

[3] = tested on: Staphylococcus epidermitis; experiment: Bacterial growth inhibition screen in LB media (absorbance 595 nm), percent inhibition; details: for % Inhibition: S. epidermitis
[4] = tested on: Staphylococcus epidermitis; experiment: Dose response of bacterial growth inhibition, MIC85; details: Staphylococcus, read-out: MIC85
[5] = molecular target: T1, bacterial NAD synthetase enzyme; details: 2 mL Assay (cuvette); substrate; double reciprocal plots
[6] = tested on: B. subtilis; experiment: Dose response of bacterial growth inhibition, MIC85; details: Bacillus subtilis, read-out: MIC85
[7] = tested on: Salmonella typhimurium LT2 TT366; experiment: Standard antibiotic paper disk assay, zone of inhibition; assay type: cell-based; details: 250 μg on 6 or 7 mm paper disk; minimal-glucose plate; gram −
Protocol: (§1) To determine initially if a compound found active in the assays, Compound 864, was also an effective inhibitor of a variety of different bacteria, a standard antibiotic assay was performed. In this assay 250 μg of Compound 864 ([…] in DMSO) was spotted on 6 or 7 mm paper disks. Each disk was placed on separate 30 ml solid-medium plates layered with bacteria Blood agar plates were used for Streptococcus, and minimal-glucose plates were used for the other microorganisms in Table 306. DMSO controls provided negative results.

[8] = tested on: Streptococcus pneumoniae WU2; experiment: as above; assay type: cell-based; details: 250 μg on 6 or 7 mm paper disk; blood agar plate; gram +
Protocol: as §1

[9] = tested on: Bacillus subtilis A700; experiment: as above; assay type: cell-based; details: 250 μg on 6 or 7 mm paper disk; minimal-glucose plate; gram +
Protocol: as §1

[10] = tested on: Escherichia coli K-12 W3110 (CGSC#4474); experiment: as above; assay type: cell-based; details: 250 μg on 6 or 7 mm paper disk; minimal-glucose plate; gram −
Protocol: as §1

[11] = tested on: Escherichia coli K-12 MG1655 (CGSC#6300); experiment: as above; assay type: cell-based; details: 250 μg on 6 or 7 mm paper disk; minimal-glucose plate; gram −
Protocol: as §1

[12] = tested on: Streptococcus pneumonia D39; experiment: as above; assay type: cell-based, Streptococcus pneumoniae; details: 250 μg on 6 or 7 mm paper disk; blood agar plate; gram +
Protocol: as §1

[13] = substrate: Nc1ncnc2c1ncn2[C@@H]1O[C@H](COP(=O)(O)OP(=O)(O)OP(=O)(O)O)[C@@H](O)[C@H]1O; experiment: purified protein, by the assay type; details: substrate, pH 8.5
[14] = K562 human myeloid cells, 15 hours at 37° C., propidium iodide
[15] = compound at 0.2 mM (Table 312A)
[16] = lead compounds (Table 318A), read-out: IC 50
[17] = Staphylococcus, read-out: % Inhibition, S. epidermitis, concentration screened 100 uM
[18] = other: 2 mL Assay (cuvette), double reciprocal plots

COC(=O)C=Cc1cn(CCCCCCCCC[n+]2cccc(C(=O)OC)c2)c2ccccc12 [Compound 270]
Minimum Toxic Dose ([1]; human, 15 h): 200 µM | IC50 [2]: 60 µM | inhibition of growth at 10 µM ([3]; Staphylococcus, read-out: % Inhibition, S. epidermitis, concentration screened 10 uM): 97.5% | MIC [4]: 10 µM

Fc1cc(F)c2[nH]c(CCCC[n+]3cccc4ccccc43)cc2c1 [Compound 409]
Minimum Toxic Dose [1, 14]: 200 µM | % Inhibition [2, 15]: 19.02% | % Inhibition ([3]; concentration screened 10 uM): 2.44%

COC(=O)c1cc2ccccc2n1CCCCCCCCOC(=O)c1cccnc1 [Compound 949]
Minimum Toxic Dose [1, 14]: 200 µM

[Mg+2] [Mg^+2, magnesium]
Km [2]: 2900 µM | Km [5]: 2600 µM | Vmax [5]: 120 nM/s

COC(=O)c1cc2ccccc2n1CCCCCCCCCOC(=O)Cc1ccc([N+](C)(C)C)cc1 [Compound 986]
inhibition at 50 µM [2]: 30.8% | IC50 [2, 16]: 10 µM | MIC [6]: 10 µM

COC(=O)c1cc2ccccc2n1CCCCCCCOC(=O)Cc1ccc([N+](C)(C)C)cc1 [Compound 984]
IC50 [2]: 20 µM | inhibition at 50 µM [2]: 87.5% | MIC [6]: 30 µM

COC(=O)c1cc2cc(OCc3ccccc3)ccc2n1CCCCCCCCCOC(=O)Cc1ccc([N+](C)(C)C)cc1 [Compound 990]
IC50 [2]: 20 µM | inhibition at 200 µM [2]: 92.2% | MIC [6]: 10 µM

C[n+]1cccc(C(=O)OCCCCCCCCn2ccc3cc(OCc4ccccc4)ccc32)c1 [Compound 769]
inhibition at 100 µM [2]: 98.3% | IC50 [2, 16]: 20 µM | MIC [6]: 3 µM | inhibition of growth at 100 µM [3, 17]: 95.9% | MIC [4]: 10 µM

CC(=O)c1ccc2[nH]c(CCCCCCCCOC(=O)Cc3ccc[n+](C)c3)cc2c1 [Compound 939]
Minimum Toxic Dose ([1]; human, 15 h): 500 µM | IC50 [2]: 25 µM | inhibition at 250 µM [2]: 97.8%

COC(=O)c1cc2ccccc2n1CCCCCCCCOC(=O)Cc1ccc([N+](C)(C)C)cc1 [Compound 985]
IC50 [2]: 15 µM | inhibition at 50 µM [2]: 92.1% | MIC [6]: 10 µM

COC(=O)c1cc2ccccc2n1CCCCCCCOC(=O)c1cccnc1 [Compound 948]
Minimum Toxic Dose [1, 14]: 200 µM | % Inhibition ([2]; compound at 0.05 mM): 2.52%

COC(=O)c1cc2cc(OCc3ccccc3)ccc2n1CCCCCCCCOC(=O)c1ccc[n+](C)c1 [Compound 977]
IC50 [2]: 10 µM | inhibition at 100 µM [2]: 87.6% | MIC [6]: 10 µM

C[N+](C)(C)c1ccc(CC(=O)OCCCCCCCCn2ccc3cc(OCc4ccccc4)ccc32)cc1 [Compound 749]
IC50 [2]: 25 µM | inhibition at 100 µM [2]: 98.2% | MIC [6]: 3 µM | inhibition of growth at 100 µM [3, 17]: 98.7% | MIC [4]: 10 µM

Nc1ncnc2c1ncn2[C@@H]1O[C@H](COP(=O)(O)OP(=O)(O)OC[C@H]2O[C@@H]([n+]3cccc(C(=O)O)c3)[C@H](O)[C@@H]2O)[C@@H](O)[C@H]1O [NaAD, nictonic acid dinucleotide, reference compound]
Km [2]: 76 µM | Km [5]: 75 µM | Vmax [5]: 286 nM/s

COC(=O)c1cc2cc(OCc3ccccc3)ccc2n1CCCCCCCCOC(=O)c1cccnc1 [Compound 953]
Minimum Toxic Dose [1, 14]: 100 µM

N [NH3, ammonia]
Km [5]: 2880 µM | Vmax [5]: 137 nM/s

COC(=O)c1cc2cc(OCc3ccccc3)ccc2n1CCCCCCCCC[n+]1ccccc1 [Compound 230]
inhibition at 100 µM [2]: 93.1% | MIC [6]: 10 µM | inhibition of growth at 100 µM [3, 17]: 95.5% | MIC [4]: 3 µM

COC(=O)c1cc2cc(OCc3ccccc3)ccc2n1CCCCCCOC(=O)c1cccnc1 [Compound 951]
Minimum Toxic Dose [1, 14]: 500 µM

COC(=O)c1cc2cc(OCc3ccccc3)ccc2n1CCCCCCCOC(=O)c1ccc[n+](C)c1 [Compound 976]
IC50 [2]: 20 µM | inhibition at 100 µM [2]: 71% | MIC [6]: 10 µM

COC(=O)c1cc2ccccc2n1CCCCCCOC(=O)c1cccnc1 [Compound 947]
Minimum Toxic Dose [1, 14]: 200 µM

C[n+]1cccc(C(=O)OCCCCCn2ccc3cc([N+](=O)[O-])ccc32)c1 [Compound 864]
% Inhibition [2, 15]: 19.33% | ZONE OF INHIBITION [7]: 10 mm | ZONE OF INHIBITION [8]: 15 mm | ZONE OF INHIBITION [9]: 19.5 mm | ZONE OF INHIBITION [10]: 9.5 mm | ZONE OF INHIBITION [11]: 9.5 mm | % Inhibition ([3]; concentration screened 100 uM): 87.03% | ZONE OF INHIBITION [12]: 12 mm

COC(=O)c1cc2cc(OCc3ccccc3)ccc2n1CCCCCCCOC(=O)Cc1ccc([N+](C)(C)C)cc1 [Compound 988]
inhibition at 100 µM [2]: 84.3% | MIC [6]: 10 µM

O=C(O)C=Cc1cn(CCCCCCCCC[n+]2cccc(C(=O)[O-])c2)c2ccccc12 [Compound 274]
Minimum Toxic Dose [1, 14]: 300 µM

B1: bacterial NAD synthetase enzyme (Bacillus subtilis subsp. subtilis str. 168) (protein)
chain: SMQEKIMRELHVKPSIDPKQEIEDRVNFLKQYVKKTGAKGFVLGISGGQDSTLAGRLAQLAVESIREEGGDAQFIAVRLPHGTQQDEDDAQLALKFIKPDKSWKFDIKSTVSAFSDQYQQETGDQLTDFNKGNVKARTRMIAQYAIGGQEGLLVLGTDHAAEAVTGFFTKYGDGGADLLPLTGLTKRQGRTLLKELGAPERLYLKEPTADLLDEKPQQSDETELGISYDEIDDYLEGKEVSAKVSEALEKRYSMTEHKRQVPASMFDDWWK
Km ([13]; other: 0.2 mL Assay (microtiter plate)): 152 µM | Km [13, 18]: 120 µM | Vmax [13, 18]: 436 nM/s
